Data reported in patent US20240383882A1 (Ecstasy LLC, priority 2020, published 2024).
Where a name gives a salt, the structure may show the parent alone.

The molecules below were run on male C57BL/6 mice (assay: 55° C. warm-water tail-flick test (antinociception)). Conditions: Mus musculus, sc, 0.5 h, compounds of Table I; s.c.; 30 min; 55° C. water; configuration tested as in Table II; read-out: ED50 (mg/kg) at 30 min on C57BL/6 mice in Warm-water Tail-flick Test.
Format: in vivo
Protocol: Antinociception was assessed using the 55° C. warm-water tail-flick test. The latency to the first sign of a rapid tail flick was taken as the behavioral endpoint. Each mouse was first tested for baseline latency by immersing its tail in the water and recording the time to response. Mice not responding within 2 secs were excluded from further testing. Responsive mice were then s.c. administered the test compound and tested for antinociception at 30 min, 60 min, 90 min, and 120 min time points afterward. Antinociception was calculated using the following formula: percentage of antinociception=100×(test latency−control latency)/(20−control latency).
The following new compounds were also made and tested to determine the half maximal possible effective dose, or ED50 (mg/kg), in mice, using one of: the warm water tail-flick test as in Table II, spared nerve injury, chronic constriction injury, or Complete Freund's adjuvant induced inflammatory pain. The symbols in the last column are: + indicates ED 50>50 mg/kg; ++ indicates ED 50 is less than or equal to 30 mg/kg.

`CCOC(C)C1(CCc2cccs2)CCN(C(C)(C)c2ccc(C)nc2)C1` (single isomer, unassigned) [Compound 5] and `CCOC(c1ccccn1)C1(CCc2cccs2)CCN(C(C)(C)c2ccc(C)nc2)C1` (single isomer, unassigned) [Compound 86, 5-(2-((S or R)-3-((R& S)-ethoxy(pyridin-2-yl)methyl)-3-(2-(thiophen-2-yl)ethyl)pyrrolidin-1-yl)propan-2-yl)-2-methylpyridine citrate] cannot be ordered by ED50: at most 30 mg/kg for the first, at most 30 mg/kg for the second.

`Cc1ccc(C(C)(C)N2CCC(CCCc3cccs3)(C3CCCO3)C2)cn1` (single isomer, unassigned) [Compound 19] and `Cc1ccc(C(C)(C)N2CCC(CCc3cccs3)(C3OCCc4ccccc43)C2)cn1` (single isomer, unassigned) [Compound 87, 5-(2-((R or S)-3-((S or R)-isochroman-1-yl)-3-(2-(thiophen-2-yl)ethyl)pyrrolidin-1-yl)propan-2-yl)-2-methylpyridine citrate] cannot be ordered by ED50: at most 30 mg/kg for the first, at most 30 mg/kg for the second.

`Cc1ccc(C(C)(C)N2CCC(CCc3cccs3)(c3nnc(C)s3)C2)cn1` (single isomer, unassigned) [Compound 24] and `Cc1ccc(C(C)(C)N2CCC(CCc3cccs3)(COC(F)F)C2)cn1` (single isomer, unassigned) [Compound 82, (R or S)-5-(2-(3-((difluoromethoxy)methyl)-3-(2-(thiophen-2-yl)ethyl)pyrrolidin-1-yl)propan-2-yl)-2-methylpyridine citarte] cannot be ordered by ED50: at most 30 mg/kg for the first, at most 30 mg/kg for the second.

`Cc1ccc(C(C)(C)N2CCC(CCc3ccc(F)s3)(CNC(=O)NC(C)C)C2)cn1` (single isomer, unassigned) [Compound 42] and `Cc1ccc(C(C)(C)N2CCC(CCc3ccc(F)s3)(CNC(=O)Nc3ccccc3)C2)cn1` (single isomer, unassigned) [Compound 43] cannot be ordered by ED50: at most 30 mg/kg for the first, at most 30 mg/kg for the second.

Compared with `OCC1(CCc2ccc(F)cc2)CCN(Cc2cccnc2)C1` (single isomer, unassigned) [Compound 44], `CCOCC1(CCc2ccc(F)cc2)CCN(Cc2cncc(F)c2)C1` (single isomer, unassigned) [Compound 45] is higher in ED50: at most 30 mg/kg for the first, over 50 mg/kg for the second.

`CCOCC1(Cn2cnc3cnccc32)CCN(C(C)(C)c2ccc(C)nc2)C1` (single isomer, unassigned) [Compound 85, (R or S)-1-((3-(ethoxymethyl)-1-(2-(6-methylpyridin-3-yl)propan-2-yl)pyrrolidin-3-yl)methyl)-1H-imidazo[4,5-c]pyridine citrate] and `CCOCC1(CCn2c(=O)[nH]c3cc(F)c(F)cc32)CCN(C(C)(C)c2ccc(C)nc2)C1` (single isomer, unassigned) [Compound 99] cannot be ordered by ED50: at most 30 mg/kg for the first, at most 30 mg/kg for the second.

`CCC(C)(c1ccc(C)nc1)N1CCC(CCc2cccs2)(C2OCCc3ccccc32)C1` (single isomer, unassigned) [Compound 89, 5-(2-((R or S)-3-((S or R)-isochroman-1-yl)-3-(2-(thiophen-2-yl)ethyl)pyrrolidin-1-yl)butan-2-yl)-2-methylpyridine citrate] and `Cc1ccc(C(C)(C)N2CCC(CCc3ccc(F)s3)(C3OCCc4ccccc43)C2)cn1` (single isomer, unassigned) [Compound 94, 5-(2-((R or S)-3-(2-(5-fluorothiophen-2-yl)ethyl)-3-((R or S)-isochroman-1-yl)pyrrolidin-1-yl)propan-2-yl)-2-methylpyridine citrate] cannot be ordered by ED50: at most 30 mg/kg for the first, at most 30 mg/kg for the second.

`CCOC(c1ccccc1)C1(CCc2ccc(F)s2)CCN(C(C)(C)c2ccc(C)nc2)C1` (single isomer, unassigned) [Compound 97, 5-(2-((R or S)-3-((R or S)-ethoxy(phenyl)methyl)-3-(2-(5-fluorothiophen-2-yl)ethyl)pyrrolidin-1-yl)propan-2-yl)-2-methylpyridine citrate] gave an ED50 of at most 30 mg/kg.

Same assay, conditions: Mus musculus, sc, 0.5 h, compounds of Table III; s.c.; 30 min; 55° C. water; configuration tested as in Table IV; read-out: ED50 (mg/kg) at 30 min on C57BL/6 mice in Warm-water Tail-flick Test (same as Table II)

In the case of `CC(C)(c1ccsc1)N1CCC(CCc2cccs2)(C2CCCO2)C1` (single isomer, unassigned) [Compound 24], the ED50 is reported as at most 30 mg/kg.

Same assay, conditions: Mus musculus; half maximal effective dose in mice; using one of: warm water tail-flick test, spared nerve injury, chronic constriction injury, or Complete Freund's adjuvant induced inflammatory pain (not stated which per compound); read-out: Biological Activity (ED50)

Going from `N#Cc1ccc(CC[C@@]2(C3CCO3)CCN(Cc3cccnc3)C2)cc1` (single isomer, unassigned) [Compound 11, 4-(2-((R)-3-((R or S)-oxetan-2-yl)-1-(pyridin-3-ylmethyl)pyrrolidin-3-yl)ethyl) benzonitrile] to `N#Cc1ccc(CC[C@]2(C3CCO3)CCN(Cc3cccnc3)C2)cc1` (single isomer, unassigned) [Compound 21, 4-(2-((S)-3-((R or S)-oxetan-2-yl)-1-(pyridin-3-ylmethyl)pyrrolidin-3-yl)ethyl) benzonitrile], the ED50 rises from at most 30 mg/kg to over 50 mg/kg.

Compared with `Fc1ccc(CC[C@@]2(C3CCO3)CCN(Cc3cccnc3)C2)cc1` (single isomer, unassigned) [Compound 12, 3-(((R)-3-(4-fluorophenethyl)-3-((R or S)-oxetan-2-yl)pyrrolidin-1-yl)methyl)pyridine], `CC(C)(c1ccccn1)N1CC[C@@](CCc2ccc(S(C)(=O)=O)cc2)(C2CCCO2)C1` (single isomer, unassigned) [Compound 67] is higher in ED50: at most 30 mg/kg for the first, over 50 mg/kg for the second.

Going from `CC(C)c1nc(C(C)(C)N2CC[C@@](CCc3ccc(S(C)(=O)=O)cc3)(C3CCCO3)C2)cs1` (single isomer, unassigned) [Compound 29, 2-isopropyl-4-(2-((R)-3-(4-(methylsulfonyl)phenethyl)-3-((R or S)-tetrahydrofuran-2-yl)pyrrolidin-1-yl)propan-2-yl)thiazole] to `CC(C)c1nc(C(C)(C)N2CC[C@@](CCc3ccc(C#N)cc3)(C3CCCO3)C2)cs1` (single isomer, unassigned) [Compound 30, 4-(2-((R)-1-(2-(2-isopropylthiazol-4-yl)propan-2-yl)-3-((R or S)-tetrahydrofuran-2-yl)pyrrolidin-3-yl)ethyl) benzonitrile], the ED50 rises from at most 30 mg/kg to over 50 mg/kg.

Going from `CCOC(c1ccccc1)[C@]1(CCc2ccc(C#N)cc2)CCN(C(C)(C)c2ccccc2)C1` (single isomer, unassigned) [Compound 31, 4-(2-((R)-3-((R or S)-ethoxy(phenyl)methyl)-1-(2-phenylpropan-2-yl)pyrrolidin-3-yl)ethyl)benzonitrile] to `CC(C)(c1ccccn1)N1CC[C@@](CCc2ccc(C#N)cc2)(C(O)c2ccccc2)C1` (single isomer, unassigned) [Compound 57], the ED50 falls from over 50 mg/kg to at most 30 mg/kg.

`CC(O)[C@]1(CCc2ccc(F)cc2)CCN(C(C)(C)c2ccc(S(C)(=O)=O)cc2)C1` (single isomer, unassigned) [Compound 38, (R or S)-1-((R)-3-(4-fluorophenethyl)-1-(2-(4-(methylsulfonyl)phenyl)propan-2-yl)pyrrolidin-3-yl)ethan-1-ol] and `CC(C)(c1ccc(S(C)(=O)=O)cc1)N1CC[C@@](CCc2ccc(F)cc2)(C(O)C(F)(F)F)C1` (single isomer, unassigned) [Compound 50] cannot be ordered by ED50: over 50 mg/kg for the first, over 50 mg/kg for the second.

`CC(C)(c1ccccn1)N1CC[C@](COCc2ccccc2)(C2CCCO2)C1` (single isomer, unassigned) [Compound 42] and `CC(C)(c1ccccn1)N1CC[C@](COCc2ccc(C#N)cc2)(C2CCCO2)C1` (single isomer, unassigned) [Compound 74] cannot be ordered by ED50: over 50 mg/kg for the first, over 50 mg/kg for the second.

`CCOC(C(F)(F)F)[C@]1(CCc2ccc(C#N)cc2)CCN(C(C)(C)c2ccccn2)C1` (single isomer, unassigned) [Compound 52] and `CC(C)C(O)[C@]1(CCc2ccc(C#N)cc2)CCN(C(C)(C)c2ccccn2)C1` (single isomer, unassigned) [Compound 61] cannot be ordered by ED50: over 50 mg/kg for the first, over 50 mg/kg for the second.

`CC(O)[C@@]1(CCc2ccc(C#N)cc2)CCN(C(c2ccc(F)cc2)c2cccnc2)C1` (single isomer, unassigned) [Compound 58] and `CC(C)(O)[C@@]1(CCc2ccc(C#N)cc2)CCN(C(c2ccc(F)cc2)c2cccnc2)C1` (single isomer, unassigned) [Compound 71] cannot be ordered by ED50: over 50 mg/kg for the first, over 50 mg/kg for the second.

`COC[C@@]1(CCc2ccccc2)CCN(N(C)c2ccc(C)nc2)C1` (single isomer, unassigned) [Compound 69] and `N#Cc1ccc(CC[C@]2(COCc3ccccc3)CCN(C(c3cccnc3)c3cccnc3)C2)cc1` (single isomer, unassigned) [Compound 72] cannot be ordered by ED50: over 50 mg/kg for the first, over 50 mg/kg for the second.

Compared with `COc1ccc(CN2CC[C@@](CCc3ccc(C#N)cc3)(C(O)C(F)(F)F)C2)cn1` (single isomer, unassigned) [Compound 70], `Cc1ccc(C(C)(C)N2CC[C@@](CCc3ccc(F)cc3)(C(O)C(F)(F)F)C2)cn1` (single isomer, unassigned) [Compound 78] is lower in ED50: over 50 mg/kg for the first, at most 30 mg/kg for the second.

In the case of `CC(C)(c1ccc(Cl)cc1)N1CC[C@](CCc2ccc(S(C)(=O)=O)cc2)(C(O)C(F)(F)F)C1` (single isomer, unassigned) [Compound 98, (R or S)-1-((S)-1-(2-(4-chlorophenyl)propan-2-yl)-3-(4-(methylsulfonyl)phenethyl)pyrrolidin-3-yl)-2,2,2-trifluoroethan-1-ol], the ED50 is reported as at most 30 mg/kg.
